Patent US10045983B2, “Heteroaryl pyridone and aza-pyrodine compounds” (Genentech, Inc., priority 2011, dated 2018)

Test: CD69 Whole Blood Assay (CD69 Hu Blood FACS)
Assay type: cell-based, human
Details: Lymphocyte; human whole blood, anti-IgM activated B lymphocytes, FACS; IC70; Table 1; read-out: CD69 Hu Blood FACS IC70
Text: A CD69 Whole Blood Assay can be conducted on Formula I compounds to determine the ability of compounds to inhibit the production of CD69 by B lymphocytes in human whole blood activated by crosslinking surface IgM with goat F(ab′)2 anti-human IgM (Example 907). CD69 is a type II C-type lectin involved in lymphocyte migration and cytokine secretion. CD69 expression represents one of the earliest available indicators of leukocyte activation and its rapid induction occurs through transcriptional activation (Vazquez et al (2009) Jour. of Immunology Published Oct. 19, 2009, doi:10.4049/jimmunol.0900839). Concentration-dependent inhibition of antigen receptor stimulation by selective Btk inhibitors induces cell surface expression of the lymphocyte activation marker CD69 (Honigberg et al (2010) Proc. Natl. Acad. Sci. 107(29):13075-13080). Thus, CD69 inhibition by selective Btk inhibitors may be correlated with therapeutic efficacy of certain B-cell disorders.

Row | Compound | IC70 [µM]
1 | Cc1nccc(Nc2cc(-c3ccnc(N4CCn5c(cc6c5CC(C)(C)C6)C4=O)c3CO)cn(C)c2=O)n1 [Example 179, 2-[3′-Hydroxymethyl-1-methyl-5-(2-methyl-pyrimidin-4-ylamino)-6-oxo-1,6-dihydro-[3,4′]bipyridinyl-2′-yl]-7,7-dimethyl-3,4,7,8-tetrahydro-2H,6H-cyclopenta[4,5]pyrrolo[1,2-a]pyrazin-1-one] | 0.209
2 | Cn1cc(-c2cncc(-n3ncc4c5c(sc4c3=O)CCCC5)c2CO)cc(Nc2ccc(N3CCN(C4COC4)CC3)cn2)c1=O [Example 116, 4-Hydroxymethyl-3-[1-methyl-5-({5-[4-(oxetan-3-yl)piperazin-1-yl]pyridine-2-yl}amino)-6-oxo-1,6-dihydropyridin-3-yl]-5-{6-oxo-8-thia-4,5-diazatricyclo[7.4.0.0^2,7]trideca-1(9),2(7),3-trien-5-yl}pyridine] | 0.377
3 | C[C@@H]1CN(c2ccc(Nc3cc(-c4ccnc(N5CCn6c(cc7c6CCCC7)C5=O)c4CO)cn(C)c3=O)nc2)[C@@H](C)CN1C1COC1 [Example 122, 2-(4-(5-(5-((2S,5R)-2,5-Dimethyl-4-(oxetan-3-yl)piperazin-1-yl)pyridin-2-ylamino)-1-methyl-6-oxo-1,6-dihydropyridin-3-yl)-3-(hydroxymethyl)pyridin-2-yl)-3,4,6,7,8,9-hexahydropyrazino[1,2-a]indol-1(2H)-one] | 0.0127
4 | CN1CCn2nc(Nc3cc(-c4ccnc(-n5ncc6c7c(sc6c5=O)CCCC7)c4CO)cn(C)c3=O)cc2C1 [Example 181, 3-[3′-Hydroxymethyl-1-methyl-5-(5-methyl-4,5,6,7-tetrahydro-pyrazolo[1,5-a]pyrazin-2-ylamino)-6-oxo-1,6-dihydro-[3,4′]bipyridinyl-2′-yl]-6,7,8,9-tetrahydro-3H-benzo[4,5]thieno[2,3-d]pyridazin-4-one] | 0.144
5 | Cn1cc(-c2cncc(N3CCn4c(cc5c4CCCC5)C3=O)c2CO)cc(Nc2ccc(N3CCN(C4COC4)CC3)cn2)c1=O [Example 101, 2-(4-(hydroxymethyl)-5-(1-methyl-5-(5-(4-(oxetan-3-yl)piperazin-1-yl)pyridin-2-ylamino)-6-oxo-1,6-dihydropyridin-3-yl)pyridin-3-yl)-3,4,6,7,8,9-hexahydropyrazino[1,2-a]indol-1(2H)-one] | 0.132
6 | Cn1cc(-c2ccnc(N3CCn4c(cc5c4CC(C)(C)C5)C3=O)c2CO)cc(Nc2cc3n(n2)CCOC3)c1=O [Example 168, 2-[5-(6,7-Dihydro-4H-pyrazolo[5,1-c][1,4]oxazin-2-ylamino)-3′-hydroxymethyl-1-methyl-6-oxo-1,6-dihydro-[3,4′]bipyridinyl-2′-yl]-7,7-dimethyl-3,4,7,8-tetrahydro-2H,6H-cyclopenta[4,5]pyrrolo[1,2-a]pyrazin-1-one] | 0.0635
7 | CN1CCn2nc(Nc3cc(-c4ccnc(N5CCn6c(cc7c6CCCC7)C5=O)c4CO)nn(C)c3=O)cc2C1 [Example 133, 2-(3-(Hydroxymethyl)-4-(1-methyl-5-(5-methyl-4,5,6,7-tetrahydropyrazolo[1,5-a]pyrazin-2-ylamino)-6-oxo-1,6-dihydropyridazin-3-yl)pyridin-2-yl)-3,4,6,7,8,9-hexahydropyrazino[1,2-a]indol-1(2H)-one] | 0.227

Same assay, conditions: Lymphocyte; human whole blood, anti-IgM activated B lymphocytes, FACS; IC70; Table 2 (unit inferred); read-out: CD69 Hu Blood FACS (IC70)

Row | Compound | IC70 [µM]
8 | CN1CCn2nc(Nc3cc(-c4ccnc(-n5ncc6c(cc7n6CCCC7)c5=O)c4CO)cn(C)c3=O)cc2C1 [Example 204, 2-[3-(hydroxymethyl)-4-[1-methyl-5-[(5-methyl-6,7-dihydro-4H-pyrazolo[1,5-a]pyrazin-2-yl)amino]-6-oxo-3-pyridyl]-2-pyridyl]-6,7,8,9-tetrahydropyridazino[4,5-b]indolizin-1-one] | 0.436
9 | CN1CC(c2ccc(Nc3cc(-c4ccnc(N5CCc6c(cc7n6CCCC7)C5=O)c4CO)cn(C)c3=O)nc2)C1 [Example 244, 2-[3-(hydroxymethyl)-4-[1-methyl-5-[[5-(1-methylazetidin-3-yl)-2-pyridyl]amino]-6-oxo-3-pyridyl]-2-pyridyl]-3,4,6,7,8,9-hexahydropyrido[3,4-b]indolizin-1-one] | 0.138
10 | CCc1nccc(Nc2cc(-c3ccnc(N4CCn5c(cc6c5CC(C)(C)C6)C4=O)c3CO)cn(C)c2=O)n1 [Example 229, 3-[4-[5-[(2-ethylpyrimidin-4-yl)amino]-1-methyl-6-oxo-3-pyridyl]-3-(hydroxymethyl)-2-pyridyl]-7,7-dimethyl-1,2,6,8-tetrahydrocyclopenta[3,4]pyrrolo[3,5-b]pyrazin-4-one] | 0.583
11 | COCCN1CCn2nc(Nc3cc(-c4ccnc(N5CCn6c(cc7c6CC(C)(C)C7)C5=O)c4CO)cn(C)c3=O)cc2C1 [Example 296, 3-[3-(hydroxymethyl)-4-[5-[[5-(2-methoxyethyl)-6,7-dihydro-4H-pyrazolo[1,5-a]pyrazin-2-yl]amino]-1-methyl-6-oxo-3-pyridyl]-2-pyridyl]-7,7-dimethyl-1,2,6,8-tetrahydrocyclopenta[3,4]pyrrolo[3,5-b]pyrazin-4-one] | 0.0193
12 | Cn1cc(Nc2cc(-c3ccnc(N4CCc5c(sc6c5CC(C)(C)C6)C4=O)c3CO)cn(C)c2=O)nn1 [Example 333, 3-[3-(hydroxymethyl)-4-[1-methyl-5-[(1-methyltriazol-4-yl)amino]-6-oxo-3-pyridyl]-2-pyridyl]-7,7-dimethyl-1,2,6,8-tetrahydrocyclopenta[3,4]thieno[1,3-c]pyridin-4-one] | 0.209
13 | Cn1cc(-c2ccnc(N3CCn4c(cc5c4CCCC5)C3=O)c2CO)cc(Nc2cn(C3CCN(C4COC4)CC3)cn2)c1=O [Example 243, 2-[3-(hydroxymethyl)-4-[1-methyl-5-[[1-[1-(oxetan-3-yl)-4-piperidyl]imidazol-4-yl]amino]-6-oxo-3-pyridyl]-2-pyridyl]-3,4,6,7,8,9-hexahydropyrazino[1,2-a]indol-1-one] | 2.8
14 | Cn1cc(-c2ccnc(N3CCn4c(cc5c4CC(C)(C)C5)C3=O)c2CO)cc(Nc2ccc(F)cn2)c1=O [Example 275, 3-[4-[5-[(5-fluoro-2-pyridyl)amino]-1-methyl-6-oxo-3-pyridyl]-3-(hydroxymethyl)-2-pyridyl]-7,7-dimethyl-1,2,6,8-tetrahydrocyclopenta[3,4]pyrrolo[3,5-b]pyrazin-4-one] | 0.423
15 | Cn1cc(-c2ccnc(N3CCn4c(cc5c4CC(C)(C)C5)C3=O)c2CO)nc(Nc2ccc3nccn3c2)c1=O [Example 201, 3-[3-(hydroxymethyl)-4-[6-(imidazo[1,2-a]pyridin-6-ylamino)-4-methyl-5-oxo-pyrazin-2-yl]-2-pyridyl]-7,7-dimethyl-1,2,6,8-tetrahydrocyclopenta[3,4]pyrrolo[3,5-b]pyrazin-4-one] | 3.3
16 | Cc1cnc(Nc2cc(-c3ccnc(N4CCn5c(cc6c5CC(C)(C)C6)C4=O)c3CO)cn(C)c2=O)o1 [Example 262, 3-[3-(hydroxymethyl)-4-[1-methyl-5-[(5-methyloxazol-2-yl)amino]-6-oxo-3-pyridyl]-2-pyridyl]-7,7-dimethyl-1,2,6,8-tetrahydrocyclopenta[3,4]pyrrolo[3,5-b]pyrazin-4-one] | 0.577
17 | Cn1cc(-c2ccnc(N3CCn4c(cc5c4CCCC5)C3=O)c2CO)cc(Nc2ccc(C3=CCN(C4COC4)CC3)cn2)c1=O [Example 200, 2-[3-(hydroxymethyl)-4-[1-methyl-5-[[5-[1-(oxetan-3-yl)-3,6-dihydro-2H-pyridin-4-yl]-2-pyridyl]amino]-6-oxo-3-pyridyl]-2-pyridyl]-3,4,6,7,8,9-hexahydropyrazino[1,2-a]indol-1-one] | 0.636
18 | CCC(=O)N1CCn2nc(Nc3cc(-c4ccnc(N5CCn6c(cc7c6CC(C)(C)C7)C5=O)c4CO)cn(C)c3=O)cc2C1 [Example 265, 3-[3-(hydroxymethyl)-4-[1-methyl-6-oxo-5-[(5-propanoyl-6,7-dihydro-4H-pyrazolo[1,5-a]pyrazin-2-yl)amino]-3-pyridyl]-2-pyridyl]-7,7-dimethyl-1,2,6,8-tetrahydrocyclopenta[3,4]pyrrolo[3,5-b]pyrazin-4-one] | 0.0091
19 | C[C@H]1CN(C2COC2)CCN1c1cnc(Nc2cc(-c3ccnc(-n4ncc5c6c(sc5c4=O)CCCC6)c3CO)cn(C)c2=O)cn1 [Example 230, 3-[3-(hydroxymethyl)-4-[1-methyl-5-[[5-[(2S)-2-methyl-4-(oxetan-3-yl)piperazin-1-yl]pyrazin-2-yl]amino]-6-oxo-3-pyridyl]-2-pyridyl]-6,7,8,9-tetrahydrobenzothiopheno[2,3-d]pyridazin-4-one] | 0.179
20 | C[C@H]1CN(C2COC2)CCN1c1ccc(Nc2cc(-c3ccnc(N4CCn5c(cc6c5CC(C)(C)C6)C4=O)c3CO)n[nH]c2=O)nc1 [Example 253, 3-[3-(hydroxymethyl)-4-[5-[[5-[(2S)-2-methyl-4-(oxetan-3-yl)piperazin-1-yl]-2-pyridyl]amino]-6-oxo-1H-pyridazin-3-yl]-2-pyridyl]-7,7-dimethyl-1,2,6,8-tetrahydrocyclopenta[3,4]pyrrolo[3,5-b]pyrazin-4-one] | 0.0164
21 | Cn1cc(-c2ccnc(N3CCn4c(cc5c4CC(C)(C)C5)C3=O)c2CO)cc(Nc2ccc(C(F)(F)F)nn2)c1=O [Example 301, 3-[3-(hydroxymethyl)-4-[1-methyl-6-oxo-5-[[6-(trifluoromethyl)pyridazin-3-yl]amino]-3-pyridyl]-2-pyridyl]-7,7-dimethyl-1,2,6,8-tetrahydrocyclopenta[3,4]pyrrolo[3,5-b]pyrazin-4-one] | 1.3
